Patent publication US6380196B1, “Dihydrobenzofurans” (Byk Gulden Lomberg Chemische Fabrik GmbH, priority 1997, dated 2002)
Counter-ions that a name gives are not always drawn.

system: PDE4; experiment: Inhibition of PDE 4 activity (method of Bauer and Schwabe, adapted to microtitre plates); type: biochemical
Description: The activity test was carried out according to the method of Bauer and Schwabe, which was adapted to microtitre plates (Naunyn-Schmiederberg's Arch. Pharmacol. 311, 193-198, 1980). In this test, the PDE reaction is carried out in the first step. In a second step, the resultant 5′-nucleotide is cleaved to the uncharged nucleoside by a snake venom 5′-nucleotidase from Crotalus Atrox. In the third step, the nucleoside is separated from the remaining charged substrate on ion exchange columns. The columns are eluted directly into minivials using 2 ml of 30 mM ammonium formate (pH 6.0), to which a further 2 ml of scintillation fluid is added for counting.
The inhibitory values determined for the compounds according to the invention follow from the following table A, in which the numbers of the compounds correspond to the numbers of the examples.

In order of rising “Inhibition of PDE4 activity [measured as -loglC50 (mol/l)]” value:
1. COc1ccc(C2=NN(Cc3ccc(C(=O)O)cc3)C(=O)C3CCCCC23)c2c1OC1(CCCC1)C2 (stereo not drawn) [Compound 11, (cis)-4-(2,3-Dihydro-7-methoxybenzofuran-2-spiro-1′-cyclopentan-4-yl)-2-(4-carboxybenzyl)-4a,5,6,7,8,8a-hexahydro-2H-phthalazin-1-one]  7.66
2. COc1ccc(C2=NNC(=O)C3CCCCC23)c2c1OC1(CCCC1)C2 [Compound 9, (4aS, 8aR)-4-(2,3-Dihydro-7-methoxybenzofuran-2-spiro-1′-cyclopentan-4-yl)-4a,5,6,7,8,8a-hexahydro-2H-phthalazin-1-one]  7.80
3. COc1ccc(C2=NNC(=O)C3CC=CCC23)c2c1OC1(CCCC1)C2 (stereo not drawn) [Compound 1, (cis)-4-(2,3-Dihydro-7-methoxybenzofuran-2-spiro-1′-cyclopentan-4-yl)-4a,5,8,8a-tetrahydro-2H-phthalazin-1-one]  8.02
4. COc1ccc(C2=NN(Cc3ccncc3)C(=O)C3CCCCC23)c2c1OC1(CCCC1)C2 (stereo not drawn) [Compound 12, (cis)-4-(2,3-Dihydro-7-methoxybenzofuran-2-spiro-1′-cyclopentan-4-yl)-2-(4-pyridylmethyl)-4a,5,6,7,8,8a-hexahydro-2H-phthalazin-1-one-hydrochloride]  8.22
5. COc1ccc(C2=NN(CCO)C(=O)C3CC=CCC23)c2c1OC1(CCCC1)C2 (stereo not drawn) [Compound 17, (cis)-4-(2,3-Dihydro-7-methoxybenzofuran-2-spiro-1′-cyclopentan-4-yl-2-hydroxyethyl-4a,5,8,8a-tetrahydro-2H-phthalazin-1-one]  8.36
6. COc1ccc(C2=NN(Cc3ccccc3)C(=O)C3CCCCC23)c2c1OC1(CCCC1)C2 (stereo not drawn) [Compound 14, (cis)-4-(2,3-Dihydro-7-methoxybenzofuran-2-spiro-1′-cyclopentan-4-yl)-2-benzyl-4a,5,6,7,8,8a-hexahydro-2H-phthalazin-1-one]  8.62
7. COc1ccc(C2=NN(Cc3ccccc3)C(=O)C3CC=CCC23)c2c1OC(C)(C)C2 (stereo not drawn) [Compound 26, (cis)-4-2,3-Dihydro-2,2-dimethyl-7-methoxybenzofuran-4-yl)-2-benzyl-4a,5,8,8a-tetrahydro-2H-phthalazin-1-one]  8.72
8. COc1ccc(C2=NN(c3ccccc3)C(=O)[C@H]3CC=CC[C@@H]23)c2c1OC(C)(C)C2 (relative stereo) [Compound 27, (cis)-4-(2,3-Dihydro-2,2-dimethyl-7-methoxybenzofuran-4-yl)-2-phenyl-4a,5,8,8a-tetrahydro-2H-phthalazin-1-one]  8.74
9. COc1ccc(C2=NN(CCCCn3ccnc3)C(=O)C3CC=CCC23)c2c1OC1(CCCC1)C2 (stereo not drawn) [Compound 22, (cis)-4(2,3-Dihydro-7-methoxybenzofuran-2-spiro-1′-cylopentan-4-yl)-2-[4-(imidazol-1yl)-1-butyl]-4a,5,8,8a-tetrahydro-phthalazin-1-one]  8.82
10. COc1ccc(C2=NN(c3ccccc3)C(=O)C3CC=CCC23)c2c1OC1(CCCC1)C2 (stereo not drawn) [Compound 8, (cis)-4-(2.3-Dihydro-7-methoxybenzofuran-2-spiro-1′-cyclopentan-4-yl)-2-phenyl-4a,5,8,8a-tetrahydro-2H-phthalazin-1-one]  8.87
11. COc1ccc(C2=NN(Cc3ccccc3)C(=O)C3CC=CCC23)c2c1OC1(CCCC1)C2 (stereo not drawn) [Compound 7, (cis)-4-(2,3-Dihydro-7-methoxybenzofuran-2-spiro-1′-cyclopentan-4-yl)-2-benzyl-4a,5,8,8a-tetrahydro-2H-phthalazin-1-one]  8.93
12. COc1ccc(C2=NN(C3CCCCCC3)C(=O)[C@H]3CC=CC[C@@H]23)c2c1OC(C)(C)C2 (relative stereo) [Compound 25, (cis)-4-(2,3-Dihydro-2,2-dimethyl-7-methoxybenzofuran-4-yl)-2-cycloheptyl-4a,5,8,8a-tetrahydro-2H-phthalazin-1-one]  9.01
13. COc1ccc(C2=NN(C3CCCCCC3)C(=O)C3CC=CCC23)c2c1OC1(CCCC1)C2 (stereo not drawn) [Compound 6, (cis)-4-(2,3-Dihydro-7-methoxybenzofuran-2-spiro-1′-cyclopentan-4-yl)-2-cycloheptyl-4a,5,8,8a-tetrahydro-2H-phthalazin-1-one]  9.17
14. COc1ccc(C2=NN(C3CCCCCC3)C(=O)C3CCCCC23)c2c1OC1(CCCC1)C2 (stereo not drawn) [Compound 13, (cis)-4-(2,3-Dihydro-7-methoxybenzofuran-2-spiro-1′-cyclopentan-4-yl)-2-cycloheptyl-4a,5,6,7,8,8a-hexahydro-2H-phthalazin-1-one]  9.22
15. COc1ccc(C2=NN(C3CCCC3)C(=O)C3CC=CCC23)c2c1OC1(CCCC1)C2 (stereo not drawn) [Compound 5, (cis)-4-(2,3-Dihydro-7-methoxybenzofuran-2-spiro-1′-cyclopentane-4-yl)-2-cyclopentyl-4a,5,8,8a-tetrahydro-2H-phthalazin-1-one]  9.22
16. COc1ccc(C2=NN(c3ccc(C(=O)O)cc3)C(=O)C3CC=CCC23)c2c1OC1(CCCC1)C2 (stereo not drawn) [Compound 24, (cis)-4-(2,3-Dihydro-7-methoxybenzofuran-2-spiro-1′-cyclopentan-4-yl)-2-(p-carboxyphenyl)-4a,5,8,8a-tetrahydro-2H-phthalazin-1-one]  9.38

system: not given; experiment: not given

For `COc1ccc(C2=NNC(=O)[C@H]3CC=CC[C@@H]23)c2c1OC(C)(C)C2` (relative stereo), the melting point was 242 °C.
